{
  "source": "patent US12370202B2",
  "about": "“Methods and compositions for inhibiting the NLRP3 inflammasome and/or LON protease” (TRITERPENOID THERAPEUTICS, INC., priority 2019, dated 2025)",
  "key": {"A2780": {"tested_on": "A2780", "test": "Ovarian cancer cell growth (confluence), IncuCyte ZOOM", "format": "cell-based, human", "source_text": "(§1) FIG. 11 is a set of line graphs. Cisplatin resistant human ovarian cancer cell lines A2780, CP70, OV81, CP10, OVCAR-5 and OVCAR-8 were exposed to CDDO-2P-Im, cisplatin, or a combination of CDDO-2P-Im and cisplatin.\n(§2) CDDO-2P-Im suppresses growth of cisplatin-resistant human ovarian cancer cells in vitro. Cisplatin resistant human ovarian cancer cell lines A2780, CP70, OV81, CP10, OVCAR-5 and OVCAR-8 cell were each cultured in a complete medium consisting of RPMI1640, 20% heat-inactivated FBS, 1% penicillin/streptomycin. Cells were cultured in a water jacketed CO2 incubator at 37° C. in a humidified atmosphere consisting of 5% CO2 and 95% air. Continuous live-cell analysis (CLCA) was used as a non-invasive cell monitoring and measurement method based on time-lapse, phase-contrast microscopy and fluorescence imaging, using IncuCyte® ZOOM. Cells were seeded in 96-well plates at densities of either 1×10^4 or 3×10^4 cell/cm^2 followed by addition of a drug dilution series for either CDDO-2P-Im or Cisplatin (P4394, Sigma) dissolved in PBS and diluted in media. […] Reduction in confluence is accompanied by the detachment and death of ovarian cancer cells."}, "CP10": {"tested_on": "CP10", "test": "Ovarian cancer cell growth (confluence), IncuCyte ZOOM", "format": "cell-based, human", "source_text": "as §1, §2"}, "OVCAR-5": {"tested_on": "OVCAR-5", "test": "Ovarian cancer cell growth (confluence), IncuCyte ZOOM", "format": "cell-based, human", "source_text": "as §1, §2"}, "OVCAR-8": {"tested_on": "OVCAR-8", "test": "Ovarian cancer cell growth (confluence), IncuCyte ZOOM", "format": "cell-based, human", "source_text": "as §1, §2"}, "OV81": {"tested_on": "OV81", "test": "Ovarian cancer cell growth (confluence), IncuCyte ZOOM", "format": "cell-based, human", "source_text": "as §1, §2"}, "CP70": {"tested_on": "CP70", "test": "Ovarian cancer cell growth (confluence), IncuCyte ZOOM", "format": "cell-based, human", "source_text": "as §1, §2"}, "RPMI8226 cells": {"tested_on": "RPMI8226 cells", "test": "MM cell proliferation (confluence), IncuCyte imaging", "format": "cell-based, human", "conditions": "72 hours", "experimental": "(§3) FIG. 2 is a bar graph. CDDO-2P-Im inhibits proliferation of multiple myeloma cell line in vitro. 5T33MM, RPMI8226, and ARH77 cells were seeded in 96-well plates and incubated with CDDO-2P-Im (50 nM-150 nM). Confluence (cell proliferation) was measured using IncuCyte imaging after 72 hours. *p<0.01 compared to control.\n(§4) FIG. 3 is a bar graph. […] Shown here are results for 5T33MM (50 nM TTX01/7.5 nM IXZ); RPMI8226 (100 nM TTX01/7.5 nM IXZ); and ARH77 (150 nM TTX01/10 nM IXZ). Confluence (cell proliferation) was measured using IncuCyte imaging after 72 hours.\n(§5) To examine tumor-intrinsic effects of CDDO-2P-IM in the 5T33MM cell line and in human MM cells, conducted a series of in vitro studies was conducted. For these experiments, 96-well plates were first coated in poly-L-ornithine before cells were seeded (in triplicate), including the murine 5T33MM and the human RPMI8226, and ARH77 cell lines (15,000 cells per well). Cells were incubated in IncuCyte™ Live-Cell Analysis System for 72 hours (images were taken every 4 hours). To define dose-dependent effect of CDDO-2P-IM, cells were exposed to concentrations ranging from 50 nM to 150 nM. To examine potential synergy of CDDO-2P-IM with IXZ, MM cells were exposed to IXZ (7 nM-10 nM) either alone or in combination with CDDO-2P-IM."}, "ARH77 cells": {"tested_on": "ARH77 cells", "test": "MM cell proliferation (confluence), IncuCyte imaging", "format": "cell-based, human", "conditions": "72 hours", "experimental": "as §3, §4, §5"}, "5T33MM cells": {"tested_on": "5T33MM cells", "test": "MM cell proliferation (confluence), IncuCyte imaging", "format": "cell-based, murine", "conditions": "72 hours", "experimental": "as §3, §4, §5"}, "U-87MG": {"tested_on": "U-87MG", "test": "GBM cell growth (confluence), IncuCyte", "format": "cell-based, human", "experimental": "(§6) FIG. 8 is a set of line graphs. CDDO-2P-Im suppresses growth of TMZ-resistant human GBM cells in vitro. […] Reduction in confluence is accompanied by the detachment and death of GBM cells. The data reveal that the relatively TMZ-resistant U-87MG is equivalent to LN227 in its sensitivity to CDDO-2P-Im.\n(§7) To define the capacity of CDDO-2P-IM to suppress the growth and viability of GBM, several well-characterized human GBM cell lines (U251, U-87MG, LN227, Gli36Δ5), primary cultures of patient-derived GBM cells (UVM04, D028), and normal human astrocytes (provided by Dr. Arti Gaur, Dartmouth College) were utilized.\n(§8) The activity of CDDO-2P-IM in cultures of human GBM was assessed and similar nanomolar (nM) potency was observed. […] These changes in confluence observed by Incucyte® corresponded with a reduction in cell viability. Doses of CDDO-2P-IM that result in complete cell death of the LN227, U251 and U-87MG cell lines had no effect on the viability of primary human astrocytes in vitro (not shown)."}, "LN227": {"tested_on": "LN227", "test": "GBM cell growth (confluence), IncuCyte", "format": "cell-based, human", "conditions": "nanomolar concentrations", "experimental": "as §6, §7, §8"}, "[1]": {"conditions": "suboptimal doses combined with cisplatin, significance at 0.005 or greater"}},
  "data": [
    {"smiles": "CC1(C)CC[C@]2(C(=O)n3cnc(-c4ccccn4)c3)CC[C@]3(C)[C@H](C(=O)C=C4[C@@]5(C)C=C(C#N)C(=O)C(C)(C)[C@@H]5CC[C@]43C)[C@@H]2C1", "note": "[CDDO-2P-Im, 1-[2-Cyano-3,12-dioxooleana-1,9(11)-dien-28-oyl]-4(-pyridin-2-yl)-1H-imidazole]", "values": [
      {"measurement": "growth (confluence)", "setting": "A2780; nanomolar concentrations", "value": "suppressed growth in a dose-dependent manner"},
      {"measurement": "ovarian cancer cell kill, combination with cisplatin", "setting": "A2780; [1]", "value": "significant gain"},
      {"measurement": "sensitivity (growth)", "setting": "CP10", "value": "highly sensitive"},
      {"measurement": "ovarian cancer cell kill, combination with cisplatin", "setting": "CP10; [1]", "value": "significant gain"},
      {"measurement": "sensitivity (growth)", "setting": "OVCAR-5", "value": "highly sensitive"},
      {"measurement": "ovarian cancer cell kill, combination with cisplatin", "setting": "OVCAR-5; [1]", "value": "significant gain"},
      {"measurement": "sensitivity (growth)", "setting": "OVCAR-8", "value": "highly sensitive"},
      {"measurement": "ovarian cancer cell kill, combination with cisplatin", "setting": "OVCAR-8; [1]", "value": "significant gain"},
      {"measurement": "sensitivity (growth)", "setting": "OV81", "value": "highly sensitive"},
      {"measurement": "ovarian cancer cell kill, combination with cisplatin", "setting": "OV81; [1]", "value": "significant gain"},
      {"measurement": "growth (confluence)", "setting": "CP70; nanomolar concentrations", "value": "suppressed growth in a dose-dependent manner"},
      {"measurement": "ovarian cancer cell kill, combination with cisplatin", "setting": "CP70; [1]", "value": "significant gain"},
      {"measurement": "proliferation (confluence)", "setting": "RPMI8226 cells; 50 nM-150 nM", "value": "significant dose-dependent suppressive effects"},
      {"measurement": "proliferation (confluence), combination with IXZ", "setting": "RPMI8226 cells; 100 nM TTX01/7.5 nM IXZ", "value": "act synergistically"},
      {"measurement": "proliferation (confluence), agent added alone", "setting": "RPMI8226 cells; 100 nM TTX01 or 7.5 nM IXZ alone", "value": "only partially effective"},
      {"measurement": "proliferation (confluence)", "setting": "ARH77 cells; 50 nM-150 nM", "value": "significant dose-dependent suppressive effects"},
      {"measurement": "proliferation (confluence), combination with IXZ", "setting": "ARH77 cells; 150 nM TTX01/10 nM IXZ", "value": "act synergistically"},
      {"measurement": "proliferation (confluence), agent added alone", "setting": "ARH77 cells; 150 nM TTX01 or 10 nM IXZ alone", "value": "only partially effective"},
      {"measurement": "proliferation (confluence), combination with IXZ", "setting": "5T33MM cells; 50 nM TTX01/7.5 nM IXZ", "value": "act synergistically"},
      {"measurement": "proliferation (confluence), agent added alone", "setting": "5T33MM cells; 50 nM TTX01 or 7.5 nM IXZ alone", "value": "only partially effective"},
      {"measurement": "proliferation (confluence)", "setting": "5T33MM cells; 50 nM-150 nM", "value": "significant dose-dependent suppressive effects"},
      {"measurement": "confluence (growth)", "setting": "U-87MG; nanomolar concentrations", "value": "dose-dependent reduction"},
      {"measurement": "GBM cell kill, combination with TMZ", "setting": "U-87MG; suboptimal dose of CDDO-2P-Im combined with TMZ, significance at 0.005 or greater", "value": "significant gain"},
      {"measurement": "confluence (growth)", "setting": "LN227", "value": "dose-dependent reduction"}
    ]}
  ]
}
